From patent publication US20080114047A1 (priority 2003, published 2008)
Like-named read-outs stand apart in the source and are kept apart here.

Columns and labels:
[1] = tested on: Trypanosoma brucei rhodesiense; assay: Anti-protozoan data: T.b.r. IC50; format: cell-based; conditions: read-out: T.b.r. IC50
Plasmodium falciparum = assay: Anti-protozoan data: P. falcip. IC50; format: cell-based; conditions: read-out: P. falcip. IC50
Trypanosoma cruzi = assay: Anti-protozoan data: T. cruzi IC50; format: cell-based; conditions: read-out: T. cruzi IC50
[2] = tested on: L. donovani axenic amastigotes; assay: In vitro anti-leishmania activity (IC50 vs. L. donovani axenic amastigotes); format: cell-based; conditions: Leishmania donovani
Aspergillus fumigatus = assay: Anti-fungal data: Aspergillus fumigatus; format: cell-based
Candida albicans = assay: Anti-fungal data: Candida albicans; format: cell-based
[3] = Tables VI(a), VI(c), read-out: Leishmania donovani IC50
[4] = axenic amastigotes, Tables I-V, read-out: IC50 vs. L. donovani

Row | SMILES | IC50 ([1]; Tables VI(a), VI(c)) | IC50 (in vitro) | IC50 (Plasmodium falciparum; Tables VI(a), VI(c)) | melting point | IC50 (Trypanosoma cruzi; Tables VI(a), VI(c)) | IC50 [2, 3] | MIC80 (Aspergillus fumigatus; strain DUMC 168.95) | MIC (Aspergillus fumigatus; strain DUMC 168.95, read-out: Aspergillus. Fumigatus (DUMC 168.95) MIC100) | MFC (Candida albicans; strain A39) | MIC80 (Candida albicans; strain A39) | MIC (Candida albicans; strain A39, read-out: Candida albicans (A39) MIC100) | IC50 [2, 4] | IC50 [1] | IC50 (Plasmodium falciparum) | IC50 (Trypanosoma cruzi) | IC50 ([2]; read-out: L. Donovani IC50)
1 | Cl.Cl.c1cc(OCCCCCOc2ccc(C3=NCCN3)cc2)cc(-c2cc3cc(C4=NCCN4)ccc3o2)c1 [Compound 40, 2-(2-(3-(5-(4-(4,5-Dihydro-1H-imidazol-2-yl)phenoxy)pentyloxy)phenyl)benzofuran-5-yl)-4,5-dihydro-1H-imidazole dihydrochloride] | 0.597 µM | 2.62 µM | 0.099 µM | 180 to 182 °C | 7.88 µM | 16.6 ± 6.2 µM |  |  |  |  |  |  |  |  |  | 
2 | Cl.Cl.c1cc(C2=NCCN2)ccc1OCCCOc1ccc(-c2cc3cc(C4=NCCN4)ccc3o2)cc1 [Compound 46, 2-(2-(4-(3-(4-(4,5-Dihydro-1H-imidazol-2-yl)phenoxy)propoxy)phenyl)benzofuran-5-yl)-4,5-dihydro-1H-imidazole dihydrochloride] | 0.0606 µM | 10.3 µM | 0.0432 µM | 262 to 263 °C | 7.6 µM |  | 10 µg/mL | > 100 µg/mL | 10 µg/mL | 10 µg/mL | 10 µg/mL |  |  |  |  | 
3 | CC(C)NC(=N)c1ccc(OCCCOc2cccc(-c3cc4ccc(C(=N)NC(C)C)cc4o3)c2)cc1.Cl.Cl [Compound 57, 2-(3-(3-(4-(N-Isopropylcarbamimidoyl)phenoxy)propoxy)phenyl)-N-isopropylbenzofuran-6-carboxamidine dihydrochloride] | 0.483 µM | 82.3 µM | 0.202 µM | 213 to 217 °C | 69.8 µM | 10.6 ± 6.42 µM |  |  |  |  |  | 10.6 ± 6.42 µM |  |  |  | 
4 | Cl.Cl.c1cc(OCCCOc2ccc(C3=NCCN3)cc2)cc(-c2cc3ccc(C4=NCCN4)cc3o2)c1 [Compound 58, 2-(2-(3-(3-(4-(4,5-Dihydro-1H-imidazol-2-yl)phenoxy)propoxy)phenyl)benzofuran-6-yl)-4,5-dihydro-1H-imidazole dihydrochloride] | 1.08 µM | 10.1 µM | 0.0952 µM | 208 to 211 °C | 7.32 µM | 4.73 ± 1.71 µM |  |  |  |  |  | 4.73 ± 1.71 µM |  |  |  | 
5 | Cl.Cl.c1cc(OCCCCOc2ccc(C3=NCCN3)cc2)cc(-c2cc3ccc(C4=NCCN4)cc3o2)c1 [Compound 61, 2-(2-(3-(4-(4-(4,5-Dihydro-1H-imidazol-2-yl)phenoxy)butoxy)phenyl)benzofuran-6-yl)-4,5-dihydro-1H-imidazole dihydrochloride] | 2.86 µM | 5.84 µM | 0.0976 µM | 198 to 200 °C | 8.92 µM | 7.38 ± 2.55 µM |  |  |  |  |  | 7.38 ± 2.55 µM |  |  |  | 
6 | CC(C)NC(=N)c1ccc(OCCCCCOc2cccc(-c3cc4ccc(C(=N)NC(C)C)cc4o3)c2)cc1.Cl.Cl [Compound 63, 2-(3-(5-(4-(N-Isopropylcarbamimidoyl)phenoxy)pentyloxy)phenyl)-N-isopropylbenzofuran-6-carboxamidine dihydrochloride] | 0.911 µM | 20.1 µM | 0.294 µM | 253 to 255 °C | 29.7 µM | 8.92 ± 0.71 µM |  |  |  |  |  | 8.92 ± 0.71 µM |  |  |  | 
7 | Cl.Cl.c1cc(OCCCCCOc2ccc(C3=NCCN3)cc2)cc(-c2cc3ccc(C4=NCCN4)cc3o2)c1 [Compound 64, 2-(2-(3-(5-(4-(4,5-Dihydro-1H-imidazol-2-yl)phenoxy)pentyloxy)phenyl)benzofuran-6-yl) -4,5-dihydro-1H-imidazole dihydrochloride] | 0.442 µM | 3.7 µM | 0.0469 µM | 188 to 190 °C | 3.62 µM | 16.5 ± 3.45 µM |  |  |  |  |  | 16.5 ± 3.45 µM |  |  |  | 
8 | CC(C)NC(=N)c1ccc(OCCCCCCOc2cccc(-c3cc4ccc(C(=N)NC(C)C)cc4o3)c2)cc1.Cl.Cl [Compound 66, 2-(3-(6-(4-(N-Isopropylcarbamimidoyl)phenoxy)hexyloxy)phenyl)-N-isopropylbenzofuran-6-carboxamidine dihydrochloride] | 0.42 µM | 10.1 µM | 0.347 µM | 283 to 285 °C |  | 6.18 ± 0.06 µM |  |  |  |  |  | 6.18 ± 0.06 µM |  |  |  | 
9 | CC(C)NC(=N)c1ccc(OCCCCOc2ccc(-c3cc4ccc(C(=N)NC(C)C)cc4o3)cc2)cc1.Cl.Cl [Compound 72, 2-(4-(4-(4-(N-Isopropylcarbamimidoyl)phenoxy)butoxy)phenyl)-N-isopropylbenzofuran-6-carboxamidine dihydrochloride] | 1.75 µM | 15.9 µM | 0.139 µM | 280 to 283 °C | 12.5 µM | 4.52 ± 1.81 µM |  |  |  |  |  | 4.52 ± 1.81 µM |  |  |  | 
10 | Cl.Cl.c1cc(C2=NCCN2)ccc1OCCCCOc1ccc(-c2cc3ccc(C4=NCCN4)cc3o2)cc1 [Compound 73, 2-(2-(4-(4-(4-(4,5-Dihydro-1H-imidazol-2-yl)phenoxy)butoxy)phenyl)benzofuran-6-yl)-4,5-dihydro-1H-imidazole dihydrochloride] | 0.942 µM | 16.9 µM | 0.0461 µM | 306 to 307 °C | 9.82 µM | 13.2 ± 0.86 µM |  |  |  |  |  | 13.2 ± 0.86 µM |  |  |  | 
11 | Cl.Cl.N=C(N)c1ccc(OCCCCCOc2ccc(-c3cc4ccc(C(=N)N)cc4o3)cc2)cc1 [Compound 74, 2-(4-(5-(4-Carbamimidoylphenoxy)pentyloxy)phenyl)benzofuran-6-carboxamidine dihydrochloride] | 0.314 µM | 8.98 µM | 0.268 µM | 285 °C (dec.) |  | 2.9 ± 0.14 µM |  |  |  |  |  |  |  |  |  | 
12 | Cl.Cl.c1cc(C2=NCCN2)ccc1OCCCCCOc1ccc(-c2cc3ccc(C4=NCCN4)cc3o2)cc1 [Compound 76, 2-(2-(4-(5-(4-(4,5-Dihydro-1H-imidazol-2-yl)phenoxy)pentyloxy)phenyl)benzofuran-6-yl)-4,5-dihydro-1H-imidazole dihydrochloride] | 0.262 µM | 3.2 µM | 0.028 µM | 212 to 215 °C | 2.12 µM | 10.4 ± 0.78 µM |  |  |  |  |  | 10.4 ± 0.78 µM |  |  |  | 
13 | CC(C)NC(=N)c1ccc(-c2cc3cc(C(=N)NC(C)C)ccc3o2)cc1 [Compound 164, 2-(4-(N-isopropylcarbamimidoyl)phenyl)-N-isopropylbenzofuran-5-carboxamidine] |  | > 198 µM |  |  |  |  |  |  |  |  |  |  | 0.125 µM | 0.073 µM | > 198 µM | 1.58 ± 1.09 µM
14 | CONC(=N)c1ccc(-c2cc3cc(C(=N)NOC)ccc3o2)cc1 [Compound 179, 2-(4-(N-Methoxycarbamimidoyl)phenyl)-N-methoxybenzofuran-5-carboxamidine] |  | > 219 µM |  |  |  |  |  |  |  |  |  |  | 75.4 µM | 2.5 µM | > 219 µM | > 100 µM
15 | N=C(NO)c1ccc2cc(CCCCCc3cc4ccc(C(=N)NO)cc4o3)oc2c1 [Compound 184, 2-(5-(6-(N-Hydroxycarbamimidoyl)benzofuran-2-yl)pentyl)-N-hydroxybenzofuran-6-carboxamidine] | 2.2 µM | 19.4 µM | 17.2 µM |  | 4.9 µM | 22.2 ± 0.64 µM |  |  |  |  |  |  |  |  |  | 
16 | N=C(NO)c1ccc2oc(CCCc3cc4cc(C(=N)NO)ccc4o3)cc2c1 [Compound 185, 2-(3-(5-(N-Hydroxycarbamimidoyl)benzofuran-2-yl)propyl)-N-hydroxybenzofuran-5-carboxamidine] | 4.79 µM | 23.8 µM | > 2 µM |  | 9.4 µM | > 50 µM |  |  |  |  |  |  |  |  |  | 
17 | N=C(NO)c1ccc2oc(CCCCc3cc4cc(C(=N)NO)ccc4o3)cc2c1 [Compound 186, 2-(4-(5-(N-Hydroxycarbamimidoyl)benzofuran-2-yl)butyl)-N-hydroxybenzofuran-5-carboxamidine] | 4.87 µM | > 184 µM | > 2 µM |  | 152 µM | > 100 µM |  |  |  |  |  |  |  |  |  | 
18 | CONC(=N)c1ccc2cc(CCCCCc3cc4ccc(C(=N)NOC)cc4o3)oc2c1 [Compound 187, 2-(5-(6-(N-Methoxycarbamimidoyl)benzofuran-2-yl)pentyl)-N-methoxybenzofuran-6-carboxamidine] | 13.8 µM | 34.6 µM | 9.76 µM |  | 38.4 µM | > 50 µM |  |  |  |  |  |  |  |  |  | 
19 | CONC(=N)c1ccc2oc(CCCc3cc4cc(C(=N)NOC)ccc4o3)cc2c1 [Compound 188, 2-(3-(5-(N-Methoxycarbamimidoyl)benzofuran-2-yl)propyl)-N-methoxybenzofuran-5-carboxamidine] | 8.37 µM | > 157 µM | > 1.7 µM |  | > 157 µM | > 100 µM |  |  |  |  |  |  |  |  |  | 
20 | CONC(=N)c1ccc2oc(CCCCc3cc4cc(C(=N)NOC)ccc4o3)cc2c1 [Compound 189, 2-(4-(5-(N-Methoxycarbamimidoyl)benzofuran-2-yl)butyl)-N-methoxybenzofuran-5-carboxamidine] | 6.87 µM | 74.3 µM | ~2 µM |  | 61.9 µM | > 100 µM |  |  |  |  |  |  |  |  |  | 
21 | N=C(NO)c1ccc2oc(CCCCCc3cc4cc(C(=N)NO)ccc4o3)cc2c1 [Compound 192, 2-(5-(5-(N-Hydroxycarbamimidoyl)benzofuran-2-yl)pentyl)-N-hydroxybenzofuran-5-carboxamidine] | 5 µM | 27 µM | > 1.9 µM |  | 11.9 µM | 14.3 ± 6.49 µM |  |  |  |  |  |  |  |  |  | 
